Details: in n-octanol

O=C(O)c1ccc(O)cc1
Details	solubility (mole fraction)
297.65 K	0.105
299.95 K	0.107
301.45 K	0.109
302.85 K	0.11
304.25 K	0.112
305.85 K	0.113
306.95 K	0.115
308.15 K	0.116
309.85 K	0.117
311.25 K	0.119
313.15 K	0.121
315.45 K	0.122
317.25 K	0.124
318.65 K	0.126
320.55 K	0.128
322.25 K	0.13

O=C(O)c1ccccc1[N+](=O)[O-]
Details	solubility (mole fraction)
297.15 K	0.0761
299.65 K	0.0806
300.15 K	0.084
302.05 K	0.0895
303.15 K	0.0928
306.15 K	0.101
307.15 K	0.104
308.35 K	0.108
309.25 K	0.113
310.15 K	0.117
311.75 K	0.122
313.15 K	0.129
314.85 K	0.135
317.15 K	0.141
318.65 K	0.147
319.85 K	0.154
321.15 K	0.161

Cc1ccccc1C(=O)O
Details	solubility (mole fraction)
297.15 K	0.155
299.65 K	0.165
301.15 K	0.18
302.65 K	0.19
304.75 K	0.196
305.35 K	0.197
306.25 K	0.2
306.95 K	0.208
308.95 K	0.219
310.65 K	0.23
312.25 K	0.239
314.05 K	0.25
315.75 K	0.26
316.95 K	0.271
318.75 K	0.281
320.35 K	0.294
321.55 K	0.305

O=C(O)c1ccccc1
Details	solubility (mole fraction)
300.15 K	0.192

Cc1ccc(C(=O)O)cc1
Details	solubility (mole fraction)
297.35 K	0.0595
298.05 K	0.0608
298.95 K	0.0618
301.65 K	0.0663
307.25 K	0.0767
308.65 K	0.0789
309.65 K	0.0816
312.95 K	0.0871
314.35 K	0.0896
315.8 K	0.0925
317.65 K	0.0962
319.65 K	0.0997
320.4 K	0.101
321.55 K	0.103
322.15 K	0.104

Source: BigSolDB 2.1
